Reference: ChEMBL document CHEMBL1137394, “Configurationally restricted bismacrocyclic CXCR4 receptor antagonists” (J Med Chem, 2006)
pEC50: −log10 of the molar value. Activity calls are given as the source filed them. The rule behind the calls is not given here.

Columns and labels:
[1] = system: Human immunodeficiency virus 2; assay: Antiviral activity against HIV2 ROD assessed as reduction in cytopathic effect in MT4 cells; assay type: functional, organism-based; details: Human immunodeficiency virus 2, ROD
MT4 [2] = assay: Cytotoxicity against human MT4 cells; assay type: functional
MT4 [3] = assay: Selectivity index, EC50 against HIV2 ROD/CC50 against MT4 cells; assay type: functional, Human immunodeficiency virus 2
MT4 [4] = assay: Selectivity index, EC50 against HIV1 3B/CC50 against MT4 cells; assay type: functional, Human immunodeficiency virus 1
[5] = system: Human immunodeficiency virus 1; assay: Antiviral activity against HIV1 3B assessed as reduction in cytopathic effect in MT4 cells; assay type: functional, organism-based; details: Human immunodeficiency virus 1, 3B
[6] = target: C-X-C chemokine receptor type 4 (Homo sapiens) (UniProt P61073); assay: Binding affinity to CXCR4 by flow cell cytometry; assay type: functional
Sequence of C-X-C chemokine receptor type 4 (Homo sapiens) (P61073 whole entry): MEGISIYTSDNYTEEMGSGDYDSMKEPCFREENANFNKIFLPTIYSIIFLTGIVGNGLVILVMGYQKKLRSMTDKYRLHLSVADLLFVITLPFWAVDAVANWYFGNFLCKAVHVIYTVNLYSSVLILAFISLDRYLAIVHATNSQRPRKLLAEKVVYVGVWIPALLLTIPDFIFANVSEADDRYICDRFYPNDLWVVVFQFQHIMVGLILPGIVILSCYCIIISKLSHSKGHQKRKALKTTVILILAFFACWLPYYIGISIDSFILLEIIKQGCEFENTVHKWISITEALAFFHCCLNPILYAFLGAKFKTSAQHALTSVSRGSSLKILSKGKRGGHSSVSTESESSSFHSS

c1cc(CN2CCCN3CCN(CCCNCC2)CC3)ccc1CN1CCCN2CCN(CCCNCC1)CC2
pEC50 [1]: 4.63
CC50 (MT4 [2]): > 225 µM
Selectivity index (MT4 [3]): >10
Selectivity index (MT4 [4]): >32
pEC50 [5]: 5.16
Activity [6]: Active
